Reference: article PMC7587962, “Evaluation of Cytotoxicity and α-Glucosidase Inhibitory Activity of Amide and Polyamino-Derivatives of Lupane Triterpenoids” (Molecules, 2020)
Like-named read-outs stand apart in the source and are kept apart here.

Experiments:
SK-MEL-5 = test: NCI-60 SRB screen: melanoma SK-MEL-5; type: cell-based, human; conditions: SK-MEL-5
PC-3 = test: NCI-60 SRB screen: prostate cancer PC-3; type: cell-based, human; conditions: PC-3
KM12 = test: NCI-60 SRB screen: colon cancer KM12; type: cell-based, human; conditions: KM12
MDA-MB-435 = test: NCI-60 SRB screen: melanoma MDA-MB-435; type: cell-based, human; conditions: MDA-MB-435
NSCL cancer subpanel = test: NCI-60 screen, subpanel NSCL cancer
MDA-MB-231/ATCC = test: NCI-60 SRB screen: breast cancer MDA-MB-231/ATCC; type: cell-based; conditions: Homo sapiens, 48 h
HL-60(TB) = test: NCI-60 SRB screen: leukemia HL-60(TB); type: cell-based; conditions: Homo sapiens, 48 h, HL-60(TB)
Breast cancer subpanel = test: NCI-60 screen, subpanel Breast cancer
UO-31 = test: NCI-60 SRB screen: renal cancer UO-31; type: cell-based, human; conditions: UO-31
HCT-116 = test: NCI-60 SRB screen: colon cancer HCT-116; type: cell-based; conditions: Homo sapiens, 48 h, HCT-116
HT29 = test: NCI-60 SRB screen: colon cancer HT29; type: cell-based; conditions: Homo sapiens, HT29
COLO 205 = test: NCI-60 SRB screen: colon cancer COLO 205; type: cell-based, human; conditions: COLO 205
SF-539 = test: NCI-60 SRB screen: CNS cancer SF-539; type: cell-based, human; conditions: SF-539
SK-MEL-2 = test: NCI-60 SRB screen: melanoma SK-MEL-2; type: cell-based, human; conditions: SK-MEL-2
OVCAR-3 = test: NCI-60 SRB screen: ovarian cancer OVCAR-3; type: cell-based, human; conditions: OVCAR-3
SNB-19 = test: NCI-60 SRB screen: CNS cancer SNB-19; type: cell-based, human; conditions: SNB-19
Melanoma subpanel = test: NCI-60 screen, subpanel Melanoma
MDA-MB-468 = test: NCI-60 SRB screen: breast cancer MDA-MB-468; type: cell-based, human
NCI-H522 = test: NCI-60 SRB screen: non-small cell lung cancer NCI-H522; type: cell-based, human; conditions: NCI-H522
Leukemia subpanel = test: NCI-60 screen, subpanel Leukemia
SF-268 = test: NCI-60 SRB screen: CNS cancer SF-268; type: cell-based, human; conditions: SF-268
[1] = test system: 60 human tumor cell lines; test: cells
ACHN = test: NCI-60 SRB screen: renal cancer ACHN; type: cell-based, human
HCT-15 = test: NCI-60 SRB screen: colon cancer HCT-15; type: cell-based, human; conditions: HCT-15
IGROV1 = test: NCI-60 SRB screen: ovarian cancer IGROV1; type: cell-based, human; conditions: IGROV1
K-562 = test: NCI-60 SRB screen: leukemia K-562; type: cell-based, human; conditions: K-562
SW-620 = test: NCI-60 SRB screen: colon cancer SW-620; type: cell-based; conditions: Homo sapiens, 48 h, SW-620
[2] = test system: 60 human tumor cell lines; conditions: single dose 10 µM
NCI-H460 = test: NCI-60 SRB screen: non-small cell lung cancer NCI-H460; type: cell-based; conditions: Homo sapiens, 48 h, NCI-H460
UACC-62 = test: NCI-60 SRB screen: melanoma UACC-62; type: cell-based, human; conditions: UACC-62
HCC-2998 = test: NCI-60 SRB screen: colon cancer HCC-2998; type: cell-based, human; conditions: HCC-2998
LOX IMVI = test: NCI-60 SRB screen: melanoma LOX IMVI; type: cell-based, human
NCI-H23 = test: NCI-60 SRB screen: non-small cell lung cancer NCI-H23; type: cell-based, human; conditions: NCI-H23
A549/ATCC = test: NCI-60 SRB screen: non-small cell lung cancer A549/ATCC; type: cell-based, human; conditions: A549/ATCC
CNS cancer subpanel = test: NCI-60 screen, subpanel CNS cancer
Renal Cancer subpanel = test: NCI-60 screen, subpanel Renal Cancer
[3] = Homo sapiens, five concentrations, 48 h, SRB, read-out: GI50
[4] = single dose 10 µM, read-out: Percentage Cell Growth
[5] = five concentrations, SRB, read-out: GI50

SMILES: C=C(C)[C@@H]1CC[C@]2(C(=O)NCCNCCNCCN)CC[C@]3(C)[C@H](CC[C@@H]4[C@@]5(C)CCC(=O)C(C)(C)[C@@H]5CC[C@]43C)[C@@H]12 [Compound 11]
- GI50 (SK-MEL-5; [3]): 6.98 µM
- Percentage Cell Growth (SK-MEL-5; single dose 10 µM): −86.18%
- GI50 (PC-3; [3]): 6.26 µM
- Percentage Cell Growth (PC-3; single dose 10 µM): −24.64%
- GI50 (KM12; [3]): 8.47 µM
- Percentage Cell Growth (KM12; single dose 10 µM): −81.93%
- GI50 (MDA-MB-435; [3]): 8.7 µM
- Percentage Cell Growth (MDA-MB-435; single dose 10 µM): −49.89%
- MID b, average sensitivity of all cell line of particular subpanel (NSCL cancer subpanel): 7.58 µM
- Selectivity, ratio MID a: MID b (NSCL cancer subpanel): 1.21
- activity at 10 µM (MDA-MB-231/ATCC; MDA-MB-231/ATCC, single dose 10 µM, read-out: Percentage Cell Growth): -92.4%
- GI50 (MDA-MB-231/ATCC; MDA-MB-231, MDA-MB-31/ATCC, five concentrations, SRB, read-out: GI50): 8.03 µM
- activity at 10 µM (HL-60(TB); [4]): -35.6%
- GI50 (HL-60(TB); [5]): 8.88 µM
- MID b, average sensitivity of all cell line of particular subpanel (Breast cancer subpanel): 8.04 µM
- Selectivity, ratio MID a: MID b (Breast cancer subpanel): 1.14
- GI50 (UO-31; [3]): 6.85 µM
- Percentage Cell Growth (UO-31; single dose 10 µM): −96.35%
- activity at 10 µM (HCT-116; [4]): -80.7%
- GI50 (HCT-116; [5]): 6.65 µM
- activity at 10 µM (HT29; HT-29, 48 h, single dose 10 µM, read-out: Percentage Cell Growth): -77.4%
- GI50 (HT29; HT-29, five concentrations, 48 h, SRB, read-out: GI50): 7.17 µM
- Percentage Cell Growth (COLO 205; single dose 10 µM): −47.48%
- GI50 (COLO 205; [3]): 8.74 µM
- GI50 (SF-539; [3]): 7.53 µM
- Percentage Cell Growth (SF-539; single dose 10 µM): −92.71%
- GI50 (SK-MEL-2; [3]): > 50 µM
- Percentage Cell Growth (SK-MEL-2; single dose 10 µM): 56.36%
- GI50 (OVCAR-3; [3]): 7.65 µM
- Percentage Cell Growth (OVCAR-3; single dose 10 µM): −72.48%
- GI50 (SNB-19; [3]): 8.5 µM
- Percentage Cell Growth (SNB-19; single dose 10 µM): −78.54%
- MID b, average sensitivity of all cell line of particular subpanel (Melanoma subpanel): 12.84 µM
- Selectivity, ratio MID a: MID b (Melanoma subpanel): 0.71
- GI50 (MDA-MB-468; [3]): 8.09 µM
- Percentage Cell Growth (MDA-MB-468; single dose 10 µM): −49.06%
- GI50 (NCI-H522; [3]): 8.72 µM
- Percentage Cell Growth (NCI-H522; single dose 10 µM): −69.70%
- MID b, average sensitivity of all cell line of particular subpanel (Leukemia subpanel): 7.73 µM
- Selectivity, ratio MID a: MID b (Leukemia subpanel): 1.19
- GI50 (SF-268; [3]): 7.53 µM
- Percentage Cell Growth (SF-268; single dose 10 µM): −38.68%
- GI50 ([1]; read-out: GI50 ranges against all panels of NCI60): 5.6 to 50 µM
- GI50 ([1]; read-out: MID a, average sensitivity of all cell line (GI50-MID)): 9.17 µM
- GI50 (ACHN; [3]): 13.8 µM
- Percentage Cell Growth (ACHN; single dose 10 µM): −83.29%
- Percentage Cell Growth (HCT-15; single dose 10 µM): −36.56%
- GI50 (HCT-15; [3]): 7.65 µM
- GI50 (IGROV1; Homo sapiens, IGROV-1, five concentrations, 48 h, SRB, read-out: GI50): 6.42 µM
- Percentage Cell Growth (IGROV1; single dose 10 µM): −84.81%
- GI50 (K-562; Homo sapiens, K562, five concentrations, 48 h, SRB, read-out: GI50): 8.2 µM
- Percentage Cell Growth (K-562; single dose 10 µM): −16.99%
- activity at 10 µM (SW-620; [4]): -76.7%
- GI50 (SW-620; [5]): 7.91 µM
- cancer cell lethality, range of percentage growth ([2]; cell lines with negative growth): −4.36% to −96.35%
- cases of cancer cell lethality ([2]; number of cell lines): 50
- activity at 10 µM (NCI-H460; [4]): -90.9%
- GI50 (NCI-H460; [5]): 9.4 µM
- GI50 (UACC-62; [3]): 8.96 µM
- Percentage Cell Growth (UACC-62; single dose 10 µM): −77.94%
- Percentage Cell Growth (HCC-2998; single dose 10 µM): −90.04%
- GI50 (HCC-2998; [3]): 7.16 µM
- GI50 (LOX IMVI; [3]): 8.72 µM
- Percentage Cell Growth (LOX IMVI; single dose 10 µM): −68.23%
- GI50 (NCI-H23; [3]): 9.14 µM
- Percentage Cell Growth (NCI-H23; single dose 10 µM): −35.23%
- Percentage Cell Growth (A549/ATCC; single dose 10 µM): −76.50%
- GI50 (A549/ATCC; [3]): 7.69 µM
- MID b, average sensitivity of all cell line of particular subpanel (CNS cancer subpanel): 7.76 µM
- Selectivity, ratio MID a: MID b (CNS cancer subpanel): 1.18
- MID b, average sensitivity of all cell line of particular subpanel (Renal Cancer subpanel): 12.52 µM
- Selectivity, ratio MID a: MID b (Renal Cancer subpanel): 0.73
